Results: US20220323383A1, “SMALL-MOLECULAR ADJUVANTS AND IMPLEMENTATIONS THEREOF” (JAWAHARLAL NEHRU CENTRE FOR ADVANCED SCIENTIFIC RESEARCH, priority 2019, published 2022)
Structures can show the parent of a compound that is named as a salt.

Experiments:
Format in all cases: cell-based
P. aeruginosa R590 [1] = assay: Chequerboard combination efficacy of adjuvant with antibiotics; settings: P. aeruginosa R590
Method in brief: (§1)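 Two-fold chequerboard broth microdilution of adjuvant plus antibiotic; 6 h cultures in peptone diluted to ~10^5 cfu/mL, incubated 24 h at 37 °C, 150 rpm, OD600 read. Wells matching media control define inhibitory concentrations; FIC index (FICantibiotic+FICadjuvant) and potentiation factor (MIC alone/MIC with adjuvant) calculated.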

E. coli R3336 = assay: as above
Method in brief: as §1

A. baumannii R674 = assay: Bactericidal time-kill kinetics; settings: combination of rifampicin and Compound 13 (4 μg/mL+2 μg/mL and 8 μg/mL+2 μg/mL)
Method: (§2) Briefly, A. baumannii R674 and P. aeruginosa R590 were grown in nutrient broth at 37° C. for 6 h. Combinations of Compound 13 and rifampicin (4 μg/mL+2 μg/mL and 8 μg/mL+2 μg/mL) and rifampicin alone (32 μg/mL) were inoculated with aliquots of A. baumannii R674 suspended in fresh media at ˜1.8×10^5 CFU/mL. Similarly, combination of […] and fusidic acid (8 μg/mL+1 μg/mL), Compound 15 (128 μg/mL) and fusidic acid (16 μg/mL) were inoculated with aliquots of P. aeruginosa R590 suspended in fresh media at ˜1.8×10^5 CFU/mL. After specified time intervals (0, 1, 2, 4, 6 and 12 h), 20 μL aliquots were serially diluted 10-fold in 0.9% saline, plated on sterile MacConkey agar plates and incubated at 37° C. overnight. The viable colonies were counted the next day and represented as logio (CFU/mL) (FIG. 1). Combination of rifampicin and Compound 13 could completely kill the bacteria in 2 h and combination of fusidic acid and Compound 14 could kill bacteria in 12 h.

P. aeruginosa R590 [2] = assay: Bactericidal time-kill kinetics; settings: combination with fusidic acid (8 μg/mL+1 μg/mL)
Method: as §2

| Compound | FICI (P. aeruginosa R590 [1]; antibiotic Chloramphenicol) | MIC of antibiotic in presence of adjuvant (P. aeruginosa R590 [1]; antibiotic Chloramphenicol) [µg/mL] | Potentiation factor (P. aeruginosa R590 [1]; antibiotic Chloramphenicol) | MIC of antibiotic in presence of adjuvant (P. aeruginosa R590 [1]; antibiotic Colistin) | MIC of antibiotic in presence of adjuvant (P. aeruginosa R590 [1]; antibiotic Daptomycin) | FICI (P. aeruginosa R590 [1]; antibiotic Fusidic acid) | MIC of antibiotic in presence of adjuvant (P. aeruginosa R590 [1]; antibiotic Fusidic acid) [µg/mL] | Potentiation factor (P. aeruginosa R590 [1]; antibiotic Fusidic acid) | FICI (P. aeruginosa R590 [1]; antibiotic Linezolid) | MIC of antibiotic in presence of adjuvant (P. aeruginosa R590 [1]; antibiotic Linezolid) [µg/mL] | Potentiation factor (P. aeruginosa R590 [1]; antibiotic Linezolid) | FICI (P. aeruginosa R590 [1]; antibiotic Minocycline) | MIC of antibiotic in presence of adjuvant (P. aeruginosa R590 [1]; antibiotic Minocycline) [µg/mL] | Potentiation factor (P. aeruginosa R590 [1]; antibiotic Minocycline) | FICI (P. aeruginosa R590 [1]; antibiotic Rifampicin) | MIC of antibiotic in presence of adjuvant (P. aeruginosa R590 [1]; antibiotic Rifampicin) [µg/mL] | Potentiation factor (P. aeruginosa R590 [1]; antibiotic Rifampicin) | FICI (P. aeruginosa R590 [1]; antibiotic Tetracycline) | MIC of antibiotic in presence of adjuvant (P. aeruginosa R590 [1]; antibiotic Tetracycline) [µg/mL] | Potentiation factor (P. aeruginosa R590 [1]; antibiotic Tetracycline) | also measured |
| --- | --- | --- | --- | --- | --- | --- | --- | --- | --- | --- | --- | --- | --- | --- | --- | --- | --- | --- | --- | --- | --- |
| NCCCC[C@H](N)C(=O)NCCCCCCN(CCCCCCNC(=O)[C@@H](N)CCCCN)C(=O)Cc1cccc2ccccc12 [Compound 13, N,N-bis-[(6-(^LLys)amido)hexyl] naphthyl ethanamide tetrakistrifluoroacetate] | 0.375 | 32 | 4 | No potentiation | No potentiation | 0.094 | 2 | 32 | 0.1875 | 32 | 8 | 0.1875 | 0.5 | 16 | <0.019 | <0.5 | >256 | 0.266 | 4 | 64 | FICI (E. coli R3336; antibiotic Fusidic acid): <0.125; MIC of antibiotic in presence of adjuvant (E. coli R3336; antibiotic Fusidic acid): 32 µg/mL; Potentiation factor (E. coli R3336; antibiotic Fusidic acid): >16; MIC of antibiotic in presence of adjuvant (E. coli R3336; antibiotic Linezolid): No potentiation; FICI (E. coli R3336; antibiotic Minocycline): <0.031; MIC of antibiotic in presence of adjuvant (E. coli R3336; antibiotic Minocycline): 0.5 µg/mL; Potentiation factor (E. coli R3336; antibiotic Minocycline): 64; FICI (E. coli R3336; antibiotic Rifampicin): <0.031; MIC of antibiotic in presence of adjuvant (E. coli R3336; antibiotic Rifampicin): 8 µg/mL; Potentiation factor (E. coli R3336; antibiotic Rifampicin): 64; Time to completely kill the bacteria (A. baumannii R674): 2 h |
| NCCCC[C@H](N)C(=O)NCCCCCCN(CCCCCCNC(=O)[C@@H](N)CCCCN)C(=O)CC(c1ccccc1)c1ccccc1 [Compound 14, N,N-bis-[(6-(^LLys)amido)hexyl] 3,3-diphenyl propanamide tetrakis trifluoroacetate] | <0.3125 | 32 | 4 | 0.25 µg/mL | No potentiation | <0.012 | <0.25 | >256 | <0.156 | 32 | 8 | <0.156 | 1 | 8 | <0.016 | <0.125 | >1024 | <0.1875 | 16 | 16 | FICI (P. aeruginosa R590 [1]; antibiotic Colistin): <0.266; Potentiation factor (P. aeruginosa R590 [1]; antibiotic Colistin): 4; FICI (E. coli R3336; antibiotic Fusidic acid): <0.0625; MIC of antibiotic in presence of adjuvant (E. coli R3336; antibiotic Fusidic acid): 16 µg/mL; Potentiation factor (E. coli R3336; antibiotic Fusidic acid): >32; MIC of antibiotic in presence of adjuvant (E. coli R3336; antibiotic Linezolid): No potentiation; FICI (E. coli R3336; antibiotic Minocycline): <0.0156; MIC of antibiotic in presence of adjuvant (E. coli R3336; antibiotic Minocycline): <0.25 µg/mL; Potentiation factor (E. coli R3336; antibiotic Minocycline): >128; FICI (E. coli R3336; antibiotic Rifampicin): <0.047; MIC of antibiotic in presence of adjuvant (E. coli R3336; antibiotic Rifampicin): 4 µg/mL; Potentiation factor (E. coli R3336; antibiotic Rifampicin): 128; Time to kill bacteria (P. aeruginosa R590 [2]): 12 h |
